Experiment [1] concerns Rattus norvegicus. Nature of the experiment: Cardioprotective activity in myocardial ischemia Sprague-Dawley rat model assessed as decrease in ISO-induced ST segment at 50 mg/kg, IG treated for 7 days consecutively followed by ISO administration daily for 2 days consecutively by ECG analysis. It counts as functional, organism-based. The following applies: time 9.0 day.
Experiment [2] concerns H9c2. Put plainly: Cardioprotective activity against CoCl2-induced cellular hypoxia injury in rat H9c2 cells assessed as mitochondrial membrane potential at 50 uM incubated for 24 hrs by JC-1 staining based analysis (reference value: 48.08 %). It counts as functional.
The subject of experiment [3] is H9c2. Nature of the experiment: Cardioprotective activity against CoCl2-induced cellular hypoxia injury in rat H9c2 cells assessed as cell viability at 10 uM incubated for 24 hrs by CCK-8 assay (reference value: 51.80 +/- 2.58 %). It counts as functional. The following applies: read-out: Activity. On the technique in general: Tetrazolium dyes change colour on reduction, which living cells bring about.

Experiment [4] concerns H9c2. Nature of the experiment: Cardioprotective activity against CoCl2-induced cellular hypoxia injury in rat H9c2 cells assessed as cell viability at 5 uM incubated for 24 hrs by CCK-8 assay (reference value: 51.80 +/- 2.58 %). The settings on record: read-out: Activity. It counts as functional.
The test system of experiment [5] is H9c2. Nature of the experiment: Cardioprotective activity against CoCl2-induced cellular hypoxia injury in rat H9c2 cells assessed as cell viability at 2.5 uM incubated for 24 hrs by CCK-8 assay (reference value: 51.80 +/- 2.58 %). It counts as functional. The following applies: read-out: Activity.
Experiment [6] concerns H9c2. Nature of the experiment: Inhibition of apoptosis in CoCl2-induced cellular hypoxia injury in rat H9c2 cells assessed as decrease in Bax level at 5 to 10 uM incubated for 24 hrs by Western blot analysis. It counts as functional, cell-based. The settings on record: dose 5-10 µM.
The test system of experiment [7] is Rattus norvegicus. Put plainly: Cardioprotective activity against myocardial ischemia Sprague-Dawley rat model assessed as increase in PGC1-alpha level in myocardial tissue at 50 mg/kg, IG treated for 7 days consecutively followed by ISO administration daily for 2 days consecutively by Western blot analysis. The settings on record: time 9.0 day. It is filed as functional, organism-based. Background: Immunoblotting shows a protein as a band on a membrane.

Experiment [8] relates to H9c2. Nature of the experiment: Cardioprotective activity against CoCl2-induced cellular hypoxia injury in rat H9c2 cells assessed as cell viability at 1.25 uM incubated for 24 hrs by CCK-8 assay (reference value: 51.80 +/- 2.58 %). The settings on record: read-out: Activity. It is filed as functional.
Experiment [9] addresses T1, NAD-dependent protein deacetylase sirtuin-1 (Rattus norvegicus) (UniProt A0A0G2JZ79).
T1 sequence (whole entry): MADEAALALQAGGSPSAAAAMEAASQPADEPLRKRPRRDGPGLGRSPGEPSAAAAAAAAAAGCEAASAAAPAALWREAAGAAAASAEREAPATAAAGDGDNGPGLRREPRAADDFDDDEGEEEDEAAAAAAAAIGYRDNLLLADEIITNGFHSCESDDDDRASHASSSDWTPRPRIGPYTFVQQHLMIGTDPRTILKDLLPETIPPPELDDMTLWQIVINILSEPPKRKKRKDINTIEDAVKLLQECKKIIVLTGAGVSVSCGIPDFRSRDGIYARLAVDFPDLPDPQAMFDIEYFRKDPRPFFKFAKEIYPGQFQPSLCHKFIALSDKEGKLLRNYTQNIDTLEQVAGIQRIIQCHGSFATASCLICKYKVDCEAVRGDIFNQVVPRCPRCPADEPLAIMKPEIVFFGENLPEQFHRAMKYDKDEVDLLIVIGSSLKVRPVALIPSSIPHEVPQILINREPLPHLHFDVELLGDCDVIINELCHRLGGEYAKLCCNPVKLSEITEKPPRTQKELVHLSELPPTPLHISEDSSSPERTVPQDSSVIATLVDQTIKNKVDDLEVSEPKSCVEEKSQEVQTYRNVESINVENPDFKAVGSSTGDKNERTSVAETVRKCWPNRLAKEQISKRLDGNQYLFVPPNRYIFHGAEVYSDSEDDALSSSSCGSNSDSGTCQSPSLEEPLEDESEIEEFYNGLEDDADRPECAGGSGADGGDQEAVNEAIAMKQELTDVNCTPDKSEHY
Nature of the experiment: Activation of SIRT1 in CoCl2-induced cellular hypoxia injury in rat H9c2 cells at 50 uM incubated for 24 hrs by Western blot analysis. The following applies: filed as activator. It is filed as cell-based.

Experiment [10] relates to H9c2. Put plainly: Inhibition of apoptosis in CoCl2-induced cellular hypoxia injury in rat H9c2 cells assessed as increase in caspase-3 level at 5 to 10 uM incubated for 24 hrs by Western blot analysis. It counts as functional, cell-based. The settings on record: dose 5-10 µM.
The test system of experiment [11] is H9c2. Nature of the experiment: Cardioprotective activity against CoCl2-induced cellular hypoxia injury in rat H9c2 cells assessed as increase in PGC1-alpha level at 50 uM incubated for 24 hrs by Western blot analysis. It counts as functional, cell-based.
Experiment [12] deals with T2, NAD-dependent protein deacetylase sirtuin-1 (Homo sapiens) (UniProt Q96EB6).
T2 sequence (whole entry): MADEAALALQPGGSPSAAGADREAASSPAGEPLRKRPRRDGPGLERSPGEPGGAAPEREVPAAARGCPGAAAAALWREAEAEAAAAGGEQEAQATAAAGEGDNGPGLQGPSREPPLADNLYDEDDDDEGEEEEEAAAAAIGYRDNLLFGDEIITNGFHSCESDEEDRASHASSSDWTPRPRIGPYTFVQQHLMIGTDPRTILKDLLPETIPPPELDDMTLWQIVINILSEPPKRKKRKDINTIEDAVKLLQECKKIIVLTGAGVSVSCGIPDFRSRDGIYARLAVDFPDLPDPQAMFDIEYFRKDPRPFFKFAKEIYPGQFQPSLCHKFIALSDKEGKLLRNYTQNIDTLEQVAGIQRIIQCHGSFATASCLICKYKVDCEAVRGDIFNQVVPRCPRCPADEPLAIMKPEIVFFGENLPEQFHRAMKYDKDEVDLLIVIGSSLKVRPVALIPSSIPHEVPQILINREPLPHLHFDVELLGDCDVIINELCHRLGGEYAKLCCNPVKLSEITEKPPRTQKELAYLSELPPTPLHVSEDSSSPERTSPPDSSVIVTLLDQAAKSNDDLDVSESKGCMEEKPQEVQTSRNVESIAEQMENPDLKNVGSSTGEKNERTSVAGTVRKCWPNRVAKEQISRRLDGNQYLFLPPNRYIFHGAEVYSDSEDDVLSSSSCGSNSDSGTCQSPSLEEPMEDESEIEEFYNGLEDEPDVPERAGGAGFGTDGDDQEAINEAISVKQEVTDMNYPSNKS
Put plainly: Activation of SIRT1 (unknown origin) using RHKK-ac-AMC as substrate incubated for 2 hrs by FDL assay relative to control. The settings on record: filed as activator.

Experiment [13] has as its system Rattus norvegicus. Nature of the experiment: In vivo activation of SIRT1 in myocardial tissue of myocardial ischemia Sprague-Dawley rat model at 50 mg/kg, IG treated for 7 days consecutively followed by ISO administration daily for 2 days consecutively by Western blot analysis. It counts as functional, organism-based. The settings on record: time 9.0 day.
Experiment [14] concerns H9c2. Nature of the experiment: Inhibition of apoptosis in CoCl2-induced cellular hypoxia injury in rat H9c2 cells assessed as increase in Bcl-2 level at 5 to 10 uM incubated for 24 hrs by Western blot analysis. The following applies: dose 5-10 µM. It counts as functional, cell-based.
In experiment [15] the test system is H9c2. Put plainly: Cardioprotective activity against CoCl2-induced cellular hypoxia injury in rat H9c2 cells assessed as cell viability at 0.625 uM incubated for 24 hrs by CCK-8 assay (reference value: 51.80 +/- 2.58 %). It counts as functional. The following applies: read-out: Activity.
Experiment [16] deals with H9c2. Nature of the experiment: Cardioprotective activity against CoCl2-induced cellular hypoxia injury in rat H9c2 cells assessed as reduction in apoptosis at 50 uM incubated for 24 hrs by flow cytometry. It counts as functional, cell-based. Background: In flow cytometry, cells or beads pass a laser one at a time.
Experiment [17] deals with H9c2. Nature of the experiment: Cardioprotective activity against CoCl2-induced cellular hypoxia injury in rat H9c2 cells assessed as reduction in necrosis at 50 uM incubated for 24 hrs by flow cytometry. It counts as functional, cell-based.

The source made the active and inactive calls. The calls are words filed in the database; no cut-off is given here.

As for `Oc1ccc(/C=C/c2cc(O)cc(O)c2)cc1` [RESVERATROL], the outcome in experiment [1], in experiment [7], in experiment [9], in [11], in experiment [13] and in [16] was Active. For the same compound, the result in [17] was Active. Moreover, the Activity in [2] was determined as 73.27%; in experiment [12] it was 158%. The viability at 10 µM in experiment [3] was determined as 76.1%. Besides, the viability at 5 µM in experiment [4] turned out to be 68.5%. Also, the viability at 2.5 µM in experiment [5] was 64.1%. Moreover, the inhibition result in [6], in experiment [10] and in [14] was “Active” throughout. In experiment [8], the viability at 1.25 µM stood at 58.8%. Further, the viability at 0.625 µM in experiment [15] stood at 58.3%.

Source of the values: ChEMBL document CHEMBL6120941, “Discovery of SIRT1-Activating Hydrogen Sulfide Donating Derivatives for Efficient Resistant of Myocardial Ischemic Injury” (J Med Chem, 2024).
